Results: patent publication US9193689B2, “3-aryl-5-substituted-isoquinolin-1-one compounds and their therapeutic use” (INSTITUTE OF CANCER RESEARCH: ROYAL CANCER HOSPITAL (THE), priority 2012, dated 2015)

Target: TNKS1 (Homo sapiens, UniProt O95271)
Experiment: TNKS1/PARP Biochemical Assay (TNKS1)

| SMILES | IC50 [nM] |
| --- | --- |
| O=c1[nH]c(-c2ccc(CN3CCNCC3)cc2)cc2c(F)ccc(F)c12 [IQ-079] | < 500 |
| Cc1cccc2c(=O)[nH]c(-c3ccc(C(=O)N(C)C4CCNCC4)cc3)cc12 [IQ-096, N-Methyl-4-(5-methyl-1-oxo-1,2-dihydro-isoquinolin-3-yl)-N-piperidin-4-yl-benzamide] | < 50 |
| Cc1cccc2c(=O)[nH]c(-c3ccc(CN4CCN(C(=O)C5CC5)CC4)nc3)cc12 [IQ-162] | < 20 |
| Cc1cc(F)cc2c(=O)[nH]c(-c3ccc(C(=O)N4CC(N(C)C)C4)cc3)cc12 [IQ-203] | < 50 |
| Cc1cc(F)cc2c(=O)[nH]c(-c3ccc(CN4CCN(C(=O)OC(C)(C)C)CC4)cc3)cc12 [IQ-076] | < 500 |
| Cc1cccc2c(=O)[nH]c(-c3ccc(CN4CCCC4)c(F)c3)cc12 [IQ-039] | < 500 |
| Cc1cccc2c(=O)[nH]c(-c3ccc(CN4CCNCC4)nc3)cc12 [IQ-072] | < 500 |
| CN(CC1CCN(C(=O)OC(C)(C)C)CC1)C(=O)c1ccc(-c2cc3c(Cl)cccc3c(=O)[nH]2)cc1 [IQ-145] | < 500 |
| Cc1cccc2c(=O)[nH]c(-c3ccc(CN4CCN(C(=O)OC(C)(C)C)CC4)cc3)cc12 [IQ-040] | < 500 |
| CN1CCN(Cc2ccc(-c3cc4c(Cl)cccc4c(=O)[nH]3)cc2)C(=O)C1 [IQ-056] | < 50 |
| Cc1cccc2c(=O)[nH]c(-c3ccc(C(=O)N(C)C4CCCN(C)C4)cc3)cc12 (stereo not drawn) [IQ-211] | < 20 |
| Cc1cccc2c(=O)[nH]c(-c3ccc(CCN4CCOCC4)cc3)cc12 [IQ-042] | < 50 |
| Cc1cccc2c(=O)[nH]c(-c3ccc(S(=O)(=O)N4CCC(N(C)C)CC4)cc3)cc12 [IQ-125] | < 20 |
| Cc1cccc2c(=O)[nH]c(-c3ccc(S(=O)(=O)N(C)C4CCN(C)CC4)cc3)cc12 [IQ-109] | < 20 |
| Cc1cccc2c(=O)[nH]c(-c3ccc(Cn4c(C)nc5ccccc54)cc3)cc12 [IQ-179] | < 500 |
| Cc1cccc2c(=O)[nH]c(-c3ccc(CN4CCNCC4C)cc3)cc12 (stereo not drawn) [IQ-051-1] | < 20 |
| Cc1cccc2c(=O)[nH]c(-c3ccc(C(=O)N4CCN(C5CC5)CC4)cc3)cc12 [IQ-105] | < 50 |

Further lines, results first:

| IC50 [nM] | SMILES |
| --- | --- |
| < 50 | Cc1cccc2c(=O)[nH]c(-c3ccc(CN4CCN(C)C(C)C4)cc3)cc12 (stereo not drawn) [IQ-052] |
| < 50 | Cc1cccc2c(=O)[nH]c(-c3ccc(CN4CCNCC4)c(F)c3)cc12 [IQ-059] |
| < 500 | Cc1cccc2c(=O)[nH]c(-c3ccc(S(=O)(=O)N(C)CC4CCN(C(=O)OC(C)(C)C)CC4)cc3)cc12 [IQ-113] |
| < 20 | Cc1cccc2c(=O)[nH]c(-c3ccc(C(=O)N4CCOCC4)cc3)cc12 [IQ-107] |
| < 20 | Cc1cccc2c(=O)[nH]c(-c3ccc(C(=O)N4CCN(C)CC4)cc3)cc12 [IQ-104] |
| < 20 | Cc1cccc2c(=O)[nH]c(-c3ccc(Cn4cccn4)cc3)cc12 [IQ-182] |
| < 500 | CC(C)(C)OC(=O)N1CCN(c2ccc(-c3cc4c(Cl)cccc4c(=O)[nH]3)cn2)CC1 [IQ-136] |
| < 50 | CN1CCN(Cc2ccc(-c3cc4c(F)cc(F)cc4c(=O)[nH]3)cc2)CC1 [IQ-138] |
| < 20 | Cc1cccc2c(=O)[nH]c(-c3ccc(CN4CC(C)(O)C4)cc3)cc12 [IQ-172] |
| < 20 | Cc1cccc2c(=O)[nH]c(-c3ccc(C(=O)N(C)C4CCNC4)cc3)cc12 (stereo not drawn) [IQ-200] |
| < 20 | Cc1cc(F)cc2c(=O)[nH]c(-c3ccc(C(=O)N4CCN(CCO)CC4)cc3)cc12 [IQ-192] |
| < 500 | Cc1cccc2c(=O)[nH]c(-c3ccc(S(=O)(=O)N(C4CC4)C4CCN(C)CC4)cc3)cc12 [IQ-119] |
| < 50 | Cc1cccc2c(=O)[nH]c(-c3cnc(N4CCNCC4)nc3)cc12 [IQ-026] |
| < 50 | CC(=O)N1CCN(Cc2ccc(-c3cc4c(Cl)cccc4c(=O)[nH]3)cc2)CC1 [IQ-045] |
| < 50 | Cc1cc(F)cc2c(=O)[nH]c(-c3ccc(C(C)(C)C(=O)N4CC(O)C4)cc3)cc12 [IQ-218] |
| < 50 | Cc1cccc2c(=O)[nH]c(-c3ccc(CN4CCC(N(C)C)C4)cc3)cc12 (stereo not drawn) [IQ-173] |
